Each compound was assayed against T1, full length active recombinant SYK enzyme (Homo sapiens, UniProt P43405) (assay: Inhibition of Syk tyrosine phosphorylation activity (LANCE TR-FRET kinase assay)).
T1 construct: full length active recombinant SYK enzyme (Millipore, Calif.); purchased Millipore
Assay type: biochemical
Protocol: Inhibition of Syk Tyrosine Phosphorylation Activity
Potency of candidate molecules for inhibiting Syk tyrosine phosphorylation activity is assessed by measuring the ability of a test compound to inhibit Syk-mediated tyrosine phosphorylation of a Syk-specific substrate.
SYK tyrosine phosphorylation activity is measured using the LANCE™ Technology developed by Perkin Elmer Life and Analytical Sciences (Boston, Mass.). LANCE™ refers to homogeneous time resolved fluorometry applications using techniques such as time-resolved fluorescence resonance energy transfer assay (TR-FRET) (see generally for procedures in Perkin Elmer Application Note—How to Optimize a Tyrosine Kinase Assay Using Time Resolved Fluorescence-Based LANCE Detection, wwww.perkinelmer.com/lifesciences). The assay principle involves detection of a phosphorylated substrate using energy transfer from a phosphospecific europium-labeled antibody to streptavidin-allophycocyanin as an acceptor.
To test the ability of candidate molecules to inhibit SYK tyrosine phosphorylation activity, molecules are reconstituted in 30% DMSO and serially diluted 1:3 with the final dilution containing DMSO in the absence of the candidate molecule. The final DMSO concentration in the assay is 3%. Kinase assays are performed as a two part reaction. […] The second reaction involves termination of the kinase reaction and the simultaneous addition of the detection reagents—europium-labeled anti-phosphotyrosine reagent (Eu-W1024-PY100, Perkin Elmer, Boston, Mass.) and Streptavidin-Allophycocyanin detection reagent (SA-APC, Prozyme, Calif.). The kinase reaction is performed in a black U-bottom 96-well microtitre plate. The final reaction volume is 50 μL and contains a final concentration of 1 nM active SYK enzyme, 550 nM SYK-substrate, and 100 μM ATP diluted in a buffer containing 50 mM Tris pH 7.5, 5 mM MgCl2, and 1 mM DTT. The reaction is allowed to proceed for 1 hour at room temperature. The quench buffer contains 100 mM Tris pH 7.5, 300 mM NaCl2, 20 mM EDTA, 0.02% Brij35, and 0.5% BSA. The detection reagents are added to the reaction mixture at the following dilutions-1:500 for Eu-W1024-PY100 and 1:250 for SA-APC. The kinase reaction is terminated by the addition of 50 μL quench buffer containing the detection reagents. The detection is allowed to proceed for 1 hr at room temperature. Detection of the phosphorylated substrate in the absence and presence of inhibitors is measured in the TR-FRET instrument, Analyst HT (Molecular Probes, Sunnyvale, Calif.) and the condition for measurements are set up using CriterionHost Release 2.0 (Molecular Probes, Sunnyvale, Calif.). The settings used are a follows: excitation 360 nm, emission 665-7.5 nm, beam splitter 350 nm 50/50, flash 100 pulses, delay 60 us, integration 400 us, z-height 2 mm. […] IC50s were derived by non-linear regression analysis. […]

Row | IC50 | Structure (SMILES)
1 | 0.001 to 0.01 µM | NC(=O)c1cc(F)c(N[C@@H]2CCCC[C@@H]2N)nc1Nc1ccc(-n2cncn2)cc1 [Example 50]
2 | 0.01 to 0.1 µM | CC[C@@H](Nc1nc(Nc2csc3ncccc23)c(C(N)=O)cc1F)C(N)=O [Example 423, (R)-6-(1-amino-1-oxobutan-2-ylamino)-5-fluoro-2-(thieno[2,3-b]pyridin-3-ylamino)nicotinamide]
3 | 0.01 to 0.1 µM | CC[C@@H](Nc1ccc(C(N)=O)c(Nc2csc3ncccc23)n1)C(N)=O [Example 425, (R)-6-(1-amino-1-oxobutan-2-ylamino)-2-(thieno[2,3-b]pyridin-3-ylamino)nicotinamide]
4 | 0.001 to 0.01 µM | Cn1cc2c(Nc3nc(N[C@@H]4CCCC[C@@H]4N)c(C#N)cc3C(N)=O)cccc2n1 [Example 115, 6-((1R,2S)-2-aminocyclohexylamino)-5-cyano-2-(2-methyl-2H-indazol-4-ylamino)nicotinamide]
5 | 0.1 to 1 µM | CC[C@@H](Nc1nc(Nc2ccc3c(ccn3C)c2)c(C(N)=O)cc1F)C(N)=O [Example 244, (R)-6-(1-amino-1-oxobutan-2-ylamino)-5-fluoro-2-(1-methyl-1H-indol-5-ylamino)nicotinamide]
6 | 0.001 to 0.01 µM | NC(=O)c1cc(F)c(N[C@@H]2CCCC[C@@H]2N)nc1Nc1cccc(-c2ncccn2)c1 [Example 55, 6-((1R,2S)-2-aminocyclohexylamino)-5-fluoro-2-(3-(pyrimidin-2-yl)phenylamino)nicotinamide]
7 | 0.01 to 0.1 µM | Cn1cc(Nc2nc(N[C@@H]3CCCC[C@@H]3N)c(F)cc2C(N)=O)cn1 [Example 83, 6-((1R,2S)-2-aminocyclohexylamino)-5-fluoro-2-(1-methyl-1H-pyrazol-4-ylamino)nicotinamide]
8 | 0.01 to 0.1 µM | CCC[C@@H](Nc1nc(Nc2cc(C)ns2)c(C(N)=O)cc1F)C(N)=O [Example 202, (R)-6-(1-amino-1-oxopentan-2-ylamino)-5-fluoro-2-(3-methylisothiazol-5-ylamino)nicotinamide]
9 | 0.1 to 1 µM | CC[C@@H](Nc1nc(Nc2ccc(C3CC[N+](C)([O-])CC3)cc2)c(C(N)=O)cc1F)C(N)=O (stereo partly drawn) [Example 308, (R)-4-(4-(6-(1-amino-1-oxobutan-2-ylamino)-3-carbamoyl-5-fluoropyridin-2-ylamino)phenyl)-1-methylpiperidine 1-oxide]
10 | > 1 µM | CC[C@H](Nc1nc(Nc2cccnc2)c(C(N)=O)cc1F)C1(N)CC1 [Example 371, (S)-6-(1-(1-aminocyclopropyl)propylamino)-5-fluoro-2-(pyridin-3-ylamino)nicotinamide]
11 | 0.01 to 0.1 µM | COc1ccc(C[C@@H](Nc2cc(Nc3cc(C)ns3)c(C(N)=O)cc2F)C(N)=O)cc1 [Example 36, (R)-4-(1-amino-3-(4-methoxyphenyl)-1-oxopropan-2-ylamino)-5-fluoro-2-(3-methylisothiazol-5-ylamino)benzamide]
12 | 0.1 to 1 µM | NC(=O)c1cc(F)c(N[C@@H]2CCCC(F)(F)[C@@H]2N)nc1Nc1cccc(Cl)c1 [Example 336, 6-((1R,2R)-2-amino-3,3-difluorocyclohexylamino)-2-(3-chlorophenylamino)-5-fluoronicotinamide]
13 | 0.001 to 0.01 µM | NC(=O)c1ccc(N[C@@H]2CCCC[C@@H]2N)nc1Nc1ccc2ncccc2c1 [Example 134, 2-(quinolin-6-ylamino)-6-((1R,2S)-2-aminocyclohexylamino)nicotinamide]
14 | 0.01 to 0.1 µM | CC[C@@H](Nc1nc(Nc2cccc(OC)c2)c(C(N)=O)cc1F)C(N)=O [Example 231, (R)-6-(1-amino-1-oxobutan-2-ylamino)-5-fluoro-2-(3-methoxyphenylamino)nicotinamide]
15 | 0.1 to 1 µM | COC[C@H](N)CNc1ccc(C(N)=O)c(Nc2cc(C)ns2)c1 [Example 29, (R)-4-(2-amino-3-methoxypropylamino)-2-(3-methylisothiazol-5-ylamino)benzamide]
16 | 0.001 to 0.01 µM | NC(=O)c1cc(F)c(N[C@H]2[C@@H](N)CCCC2(F)F)nc1Nc1cnc2ccccc2c1 [Example 344, 6-((1S,6S)-6-amino-2,2-difluorocyclohexylamino)-5-fluoro-2-(quinolin-3-ylamino)nicotinamide]

Row | IC50 | Structure (SMILES)
17 | 0.001 to 0.01 µM | NC(=O)c1cc(F)c(N[C@@H]2CCCC[C@@H]2N)nc1Nc1cccc2cnccc12 [Example 74, 6-((1R,2S)-2-aminocyclohexylamino)-5-fluoro-2-(isoquinolin-5-ylamino)nicotinamide]
18 | 0.001 to 0.01 µM | NC(=O)c1ccc(N[C@@H]2CCCC[C@@H]2N)nc1Nc1cccc(-n2nccn2)c1 [Example 132, 2-(3-(2H-1,2,3-triazol-2-yl)phenylamino)-6-((1R,2S)-2-aminocyclohexylamino)nicotinamide]
19 | 0.001 to 0.01 µM | N#Cc1cc(C(N)=O)c(Nc2ccc3ncccc3c2)nc1N[C@@H]1CCCC[C@@H]1N [Example 113, 6-((1R,2S)-2-aminocyclohexylamino)-5-cyano-2-(quinolin-6-ylamino)nicotinamide]
20 | 0.1 to 1 µM | Cc1cc(Nc2nc(N[C@@H]3CCCC(F)(F)[C@@H]3N)c(F)cc2C(N)=O)sn1 [Example 333, 6-((1R,2R)-2-amino-3,3-difluorocyclohexylamino)-5-fluoro-2-(3-methylisothiazol-5-ylamino)nicotinamide]
21 | > 1 µM | Cc1cccc(Nc2cc(N[C@@H]3CCCC[C@@H]3N)ncc2C(N)=O)c1 (relative stereo) [Example 142, 6-(cis-2-aminocyclohexylamino)-4-(3-toluidino)nicotinamide]
22 | 0.01 to 0.1 µM | CC(C)[C@@H](Nc1nc(Nc2cnc3ccccc3c2)c(C(N)=O)cc1F)C(N)=O [Example 300, (R)-6-(1-amino-3-methyl-1-oxobutan-2-ylamino)-5-fluoro-2-(quinolin-3-ylamino)nicotinamide]
23 | 0.1 to 1 µM | Cc1cc(Nc2cc(N[C@H](COCc3ccccc3)C(N)=O)ccc2C(N)=O)sn1 [Example 15, (R)-4-(1-amino-3-(benzyloxy)-1-oxopropan-2-ylamino)-2-(3-methylisothiazol-5-ylamino)benzamide]
24 | 0.1 to 1 µM | Cc1cccc(Nc2nc(N[C@H](CC(C)C)C(N)=O)ccc2C(N)=O)c1 [Example 105, (R)-6-(1-amino-4-methyl-1-oxopentan-2-ylamino)-2-(m-tolylamino)nicotinamide]
25 | 0.01 to 0.1 µM | CC[C@@H](Nc1nc(Nc2cc(C)ns2)c(C(N)=O)cc1F)C(N)=O [Example 239, (R)-6-(1-amino-1-oxobutan-2-ylamino)-5-fluoro-2-(3-methylisothiazol-5-ylamino)nicotinamide]
26 | 0.1 to 1 µM | Cc1ccc(Nc2nc(N[C@@H]3CCCC(F)(F)[C@@H]3N)c(F)cc2C(N)=O)cc1 [Example 334, 6-((1R,2R)-2-amino-3,3-difluorocyclohexylamino)-5-fluoro-2-(p-tolylamino)nicotinamide]
27 | 0.001 to 0.01 µM | NC(=O)c1cc(F)c(N[C@@H]2CCCC[C@@H]2N)nc1Nc1ccc2cccnc2c1 [Example 69, 6-((1R,2S)-2-aminocyclohexylamino)-5-fluoro-2-(quinolin-7-ylamino)nicotinamide]
28 | 0.1 to 1 µM | NC(=O)c1cc(F)c(NC2(C(N)=O)CCC2)nc1Nc1cnc2ccccc2c1 [Example 379, 6-(1-carbamoylcyclobutylamino)-5-fluoro-2-(quinolin-3-ylamino)nicotinamide]
29 | 0.1 to 1 µM | CC[C@@H](Nc1nc(Nc2ccn3ccnc3c2)c(C(N)=O)cc1F)C(N)=O [Example 230, (R)-6-(1-amino-1-oxobutan-2-ylamino)-5-fluoro-2-(H-imidazo[1,2-a]pyridin-7-ylamino)nicotinamide]
30 | 0.01 to 0.1 µM | Cc1cc(Nc2cc(N[C@@H]3CCCC[C@@H]3N)ccc2C(N)=O)sn1 [Example 6, 4-((1R,2S)-2-aminocyclohexylamino)-2-(3-methylisothiazol-5-ylamino)benzamide]
31 | 0.01 to 0.1 µM | Cc1cc(Nc2cc(N[C@H](Cc3ccc(F)cc3)C(N)=O)c(F)cc2C(N)=O)sn1 [Example 27, (R)-4-(1-amino-3-(4-fluorophenyl)-1-oxopropan-2-ylamino)-5-fluoro-2-(3-methylisothiazol-5-ylamino)benzamide]
32 | 0.01 to 0.1 µM | CC[C@@H](Nc1ccc(C(N)=O)c(Nc2ccc3ncsc3c2)n1)C(N)=O [Example 206, (R)-6-(1-amino-1-oxobutan-2-ylamino)-2-(benzo[d]thiazol-6-ylamino)nicotinamide]
